{
  "source": "paper PMC2661360",
  "about": "(PLoS ONE, 2009)",
  "key": {"Sap9 [1]": {"biological_target": "T1, Sap9 (Candida albicans, UniProt Q59SU1)", "T1 sequence (Q59SU1 18-520)": "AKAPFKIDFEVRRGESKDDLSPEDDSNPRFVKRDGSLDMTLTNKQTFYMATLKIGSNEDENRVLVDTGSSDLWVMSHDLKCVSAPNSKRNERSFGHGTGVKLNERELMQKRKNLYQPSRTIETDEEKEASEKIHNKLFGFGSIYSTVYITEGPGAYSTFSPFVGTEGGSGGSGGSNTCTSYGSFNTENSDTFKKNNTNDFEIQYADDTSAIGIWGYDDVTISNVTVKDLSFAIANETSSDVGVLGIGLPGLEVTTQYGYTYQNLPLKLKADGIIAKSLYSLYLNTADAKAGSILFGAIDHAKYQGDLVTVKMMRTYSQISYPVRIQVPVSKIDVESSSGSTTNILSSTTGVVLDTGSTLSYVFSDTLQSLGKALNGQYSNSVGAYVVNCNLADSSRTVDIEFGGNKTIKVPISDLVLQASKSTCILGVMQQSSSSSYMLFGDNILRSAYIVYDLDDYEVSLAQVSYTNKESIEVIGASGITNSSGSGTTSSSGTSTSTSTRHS", "conditions": "MALDI-TOF/TOF MS peptide mapping", "excerpt": "The recombinant proteases Sap9 and Sap10 were produced in Pichia pastoris as described previously, [45]. Briefly, P. pastoris strain GS115 was transformed with the expression plasmid pKJ113 carrying truncated SAP9 and SAP10 versions lacking signal peptide- and GPI anchor consensus- encoding sequences. Proteases were recovered from culture supernatants and purified via anion exchange chromatography. Activity of proteases was verified by using a standard fluorescence casein based assay (Molecular Probes). Purified proteases (0.05, 0.1, 0.25 and 0.5 µg) were incubated with Hst-5 for 2 h. Following, samples were processed as described above.\nSupernatants from the various degradation reactions were subjected to peptide mapping in order to determine the sequences of cleaved fragments, identify cleavage sites on the Hst-5 as well as other cleavage products that may not be visible by electrophoresis. […] Peptide samples were mixed with saturated α-cyano-4-hydroxycinnamic acid in acetonitrile∶trifluoroacetic acid 0.1% (1∶2 v/v) then measured on an Ultraflex MALDI-ToF/ToF device using flexControl 3.0 for data collection and flexAnalysis 3.0 for spectra analysis and peaklist generation (Bruker Daltonics GmbH, Germany). […]"}, "C. albicans whole cells": {"system": "C. albicans whole cells", "experiment": "Degradation assay of Hst-5 with C. albicans whole cells", "set-up": "species or system Candida albicans", "procedure": "(§1) The C. albicans SC5314 strain, the C. albicans SAP null mutants sap1–3 triple mutant (lacking SAP1–3), sap4–6 triple mutant (lacking SAP4–6), sap9 single mutant (lacking SAP9), sap10 single mutant (lacking SAP10) and sap9,10 double mutant (lacking both SAP9 and SAP10), as well as the parent strain CAI4 (URA-) were used in these experiments, [43], [44]. Strains were grown in YPD broth (Difco Laboratories, Detroit, MI) overnight at 30°C with shaking and cells were equilibrated in fresh media to an optical density of 1.0 at OD600. High purity Hst-5, proteinase K, PMSF and pepstatin A were purchased from Sigma (Sigma-Aldrich Chemical, St. Louis, MO). Histatin-5 was reconstituted in 1 mM phosphate-buffered saline (PBS) and used at a final concentration of 150 µg/ml (within the range of physiological salivary concentration) in all experiments unless otherwise stated. All experiments were performed on at least three separate occasions.\nThe intensity of the bands on the Coomassie-stained gels was assessed by densitometric analysis using a MultiImager scanner (Bio-Rad Laboratories, Hercules California) and images analyzed with the PDQuest version 7.0 (BioRAd)."}, "[2]": {"system": "cell-free supernatants of C. albicans cell suspensions", "experiment": "Degradation assay of Hst-5 with cell-free supernatants", "set-up": "species or system Candida albicans", "conditions": "C. albicans supernatant compared to whole C. albicans cells; SDS-PAGE (Figure 3C)", "method": "Degradation assays were performed by incubating Hst-5 with 100 µl of standardized cell concentrations of the C. albicans strains in PBS for 2 h at 37°C. Unless otherwise stated, C. albicans strains were used in experiments at a cell concentration of 2×10^8 cells/ml (generating two visible bands). Protease K was used as a positive control and negative controls with peptide and no C. albicans were included. Following incubation, samples were collected, heated at 100°C to remove proteolytic activity and analyzed by sodium dodecyl sulfate polyacrylamide gel electrophoresis (SDS-PAGE). Experiments were also performed using increasing C. albicans cell densities and at different time points where samples were collected following 20, 60 and 120 minutes incubation. In addition, assays were performed using cell-free supernatants from C. albicans cell suspensions to determine whether the proteolytic substance is secreted."}, "[3]": {"system": "C. albicans SAP null mutants", "set-up": "species or system Candida albicans", "conditions": "sap10 single mutant compared to parent strain CAI4 and SC5314 (Figure 4)", "procedure": "as §1"}, "Sap5 [4]": {"biological_target": "Sap5 (Candida albicans, UniProt P43094)", "sequence (P43094 77-418)": "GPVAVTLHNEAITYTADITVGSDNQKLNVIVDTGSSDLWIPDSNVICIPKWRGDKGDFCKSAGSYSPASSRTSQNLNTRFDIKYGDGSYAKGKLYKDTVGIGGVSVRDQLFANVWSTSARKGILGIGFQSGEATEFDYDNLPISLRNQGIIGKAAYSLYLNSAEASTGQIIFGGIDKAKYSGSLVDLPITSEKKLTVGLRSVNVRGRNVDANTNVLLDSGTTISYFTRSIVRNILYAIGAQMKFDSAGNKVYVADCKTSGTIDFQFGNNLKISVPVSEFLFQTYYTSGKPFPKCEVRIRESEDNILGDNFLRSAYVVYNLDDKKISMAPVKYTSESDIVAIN", "conditions": "data not shown"}, "Saccharomyces cerevisiae": {"system": "Saccharomyces cerevisiae", "experiment": "Degradation of Hst-5 by Saccharomyces cerevisiae", "conditions": "compared to C. albicans (Figure S2)"}, "proteinase K": {"biological_target": "proteinase K (Parengyodontium album, UniProt P06873)", "sequence (P06873 106-384)": "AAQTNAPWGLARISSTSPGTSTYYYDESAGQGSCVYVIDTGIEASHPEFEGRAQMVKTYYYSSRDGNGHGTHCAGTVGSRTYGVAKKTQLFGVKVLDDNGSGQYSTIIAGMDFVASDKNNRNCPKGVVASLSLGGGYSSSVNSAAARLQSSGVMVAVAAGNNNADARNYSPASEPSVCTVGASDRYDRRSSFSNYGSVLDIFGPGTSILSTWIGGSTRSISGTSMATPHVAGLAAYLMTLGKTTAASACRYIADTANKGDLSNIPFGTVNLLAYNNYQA", "experiment": "Inhibition of proteinase K degradation of Hst-5 by protease inhibitors", "format": "biochemical", "set-up": "purchased Sigma (Sigma-Aldrich Chemical, St. Louis, MO)", "conditions": "1 mM inhibitor; SDS-PAGE (Figure 3A)"}, "C. albicans cells": {"system": "C. albicans cells", "experiment": "Inhibition of C. albicans degradation of Hst-5 by protease inhibitors", "format": "cell-based, Candida albicans", "conditions": "1 mM inhibitor in the degradation assay; SDS-PAGE (Figure 3B)"}, "Sap9 [5]": {"biological_target": "T1, Sap9", "experiment": "Inhibition of Sap9 degradation of Hst-5", "format": "biochemical", "set-up": "made in house; host or cells: Pichia pastoris GS115 (plasmid pKJ113)", "conditions": "purified Sap9 protease; SDS-PAGE (Figure 3D)", "excerpt": "(§2) Following, samples were processed as described above."}, "Sap10": {"biological_target": "Sap10 (Candida albicans, UniProt Q5A651)", "sequence (Q5A651 21-429)": "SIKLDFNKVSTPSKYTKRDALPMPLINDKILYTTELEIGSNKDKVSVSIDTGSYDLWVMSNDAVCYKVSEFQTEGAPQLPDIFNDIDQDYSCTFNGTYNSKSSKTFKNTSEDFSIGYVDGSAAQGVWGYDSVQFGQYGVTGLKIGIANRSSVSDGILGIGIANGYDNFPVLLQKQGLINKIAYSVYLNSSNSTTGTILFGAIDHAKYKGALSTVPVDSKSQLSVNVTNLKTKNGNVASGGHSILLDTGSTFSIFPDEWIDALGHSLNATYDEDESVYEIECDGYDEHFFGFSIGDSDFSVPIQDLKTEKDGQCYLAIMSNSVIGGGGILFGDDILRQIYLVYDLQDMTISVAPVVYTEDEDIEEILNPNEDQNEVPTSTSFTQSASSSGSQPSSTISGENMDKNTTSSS", "experiment": "Inhibition of Sap10 degradation of Hst-5", "format": "biochemical", "set-up": "made in house; host or cells: Pichia pastoris GS115 (plasmid pKJ113)", "conditions": "purified Sap10 protease; SDS-PAGE (Figure 3D)", "excerpt": "as §2"}, "Sap5 [6]": {"system": "Sap5", "experiment": "Sap5 protease", "conditions": "C. albicans, up to 2 h"}, "[7]": {"experiment": "C. albicans whole cells (2×10^8 cells/ml) in PBS", "conditions": "Candida albicans, 37°C, up to 2 h"}, "[8]": {"experiment": "C. albicans whole cells (SC5314) in PBS, 2×10^8 cells/ml", "conditions": "37°C, up to 2 h"}, "[9]": {"experiment": "C. albicans cells in PBS with pepstatin A", "conditions": "37°C, up to 2 h"}, "Sap9 [10]": {"system": "Sap9", "experiment": "purified recombinant Sap9 protease", "conditions": "C. albicans, up to 2 h"}},
  "note": "Entries after “also recorded” stand apart in the source; their conditions may differ. Square brackets hold non-standard residues; d marks the D form. Peptide text beside a SMILES is read from it. * marks the point of attachment. Sta = CC(C)C[C@H](N)[C@@H](O)CC(=O)O; Isovaleryl = CC(C)CC(=O)*",
  "data": [
    {"molecule": "C[C@H](NC(=O)[C@H](Cc1cnc[nH]1)NC(=O)[C@H](CO)NC(=O)[C@@H](N)CC(=O)O)C(=O)N[C@@H](CCCCN)C(=O)N[C@@H](CCCNC(=N)N)C(=O)N[C@@H](Cc1cnc[nH]1)C(=O)N[C@@H](Cc1cnc[nH]1)C(=O)NCC(=O)N[C@@H](Cc1ccc(O)cc1)C(=O)N[C@@H](CCCCN)C(=O)N[C@@H](CCCNC(=N)N)C(=O)N[C@@H](CCCCN)C(=O)N[C@@H](Cc1ccccc1)C(=O)N[C@@H](Cc1cnc[nH]1)C(=O)N[C@@H](CCC(=O)O)C(=O)N[C@@H](CCCCN)C(=O)N[C@@H](Cc1cnc[nH]1)C(=O)N[C@@H](Cc1cnc[nH]1)C(=O)N[C@@H](CO)C(=O)N[C@@H](Cc1cnc[nH]1)C(=O)N[C@@H](CCCNC(=N)N)C(=O)NCC(=O)N[C@@H](Cc1ccc(O)cc1)C(=O)O", "note": "[Hst-5, Histatin-5]", "values": [
      {"measurement": "cleavage site of Sap9 on Hst-5", "setting": "Sap9 [1]", "result": "Lys13"},
      {"measurement": "degradation of Hst-5 by C. albicans", "setting": "C. albicans whole cells; 1×10^2 cells/ml and below, physiological concentrations of Hst-5", "result": "unable to degrade"},
      {"measurement": "degradation of Hst-5 by C. albicans", "setting": "C. albicans whole cells; 1×10^6 cells/ml, 2 h 37°C, SDS-PAGE", "result": "no degradation"},
      {"measurement": "degradation of Hst-5 by C. albicans", "setting": "C. albicans whole cells; 2×10^9 cells/ml, 2 h 37°C, SDS-PAGE", "result": "significant degradation"},
      {"measurement": "degradation of Hst-5 by C. albicans over time", "setting": "C. albicans whole cells; 20 mins incubation at 37°C, SDS-PAGE, lower weight product", "result": "Minor degradation"},
      {"measurement": "degradation of Hst-5 by C. albicans over time", "setting": "C. albicans whole cells; 1 h and 2 h incubation at 37°C, SDS-PAGE", "result": "significantly increasing level of degradation"},
      {"measurement": "time in which C. albicans degrades Hst-5", "setting": "C. albicans whole cells; C. albicans cells, 37°C, PBS, SDS-PAGE (Figure 2A)", "result": "≤ 20", "unit": "min"},
      {"measurement": "degradation of Hst-5 by C. albicans cells", "setting": "C. albicans whole cells; Hst-5 150 µg/ml in PBS with 100 µl C. albicans cells (2×10^8 cells/ml unless stated), 2 h 37°C, SDS-PAGE, densitometry, at least three occasions", "result": "efficiently and rapidly degrade"},
      {"measurement": "level of degradation versus Hst-5 concentration", "setting": "C. albicans whole cells; Hst-5 50–200 µg/ml, data not shown", "result": "inversely proportional to Hst-5 concentration"},
      {"measurement": "degradation of Hst-5 by cell-free supernatants", "setting": "[2]", "result": "significantly less degradation; also recorded: Minimal degradation"},
      {"measurement": "degradation of Hst-5 by sap10 mutant", "setting": "[3]", "result": "some degree of inhibition"},
      {"measurement": "degradation of Hst-5 by C. glabrata", "setting": "Candida glabrata", "result": "significant enhanced degradation"},
      {"measurement": "degradation of Hst-5 by Sap5 purified protease", "setting": "Sap5 [4]", "result": "did not degrade"},
      {"measurement": "degradation of Hst-5 by S. cerevisiae", "setting": "Saccharomyces cerevisiae", "result": "significant enhanced degradation"}
    ]},
    {"molecule": "O=S(=O)(F)Cc1ccccc1", "note": "[PMSF]", "values": [
      {"measurement": "inhibition of proteinase K degradation of Hst-5", "setting": "proteinase K", "result": "inhibition of degradation; also recorded: inhibited"},
      {"measurement": "inhibition of C. albicans degradation of Hst-5", "setting": "C. albicans cells", "result": "not and failed to inhibit"}
    ]},
    {"molecule": "CC(C)CC(=O)N[C@H](C(=O)N[C@H](C(=O)N[C@@H](CC(C)C)[C@@H](O)CC(=O)N[C@@H](C)C(=O)N[C@@H](CC(C)C)[C@@H](O)CC(=O)O)C(C)C)C(C)C", "note": "[pepstatin A] (Isovaleryl-VV[Sta]A[Sta]-OH)", "values": [
      {"measurement": "inhibition of Sap9 degradation of Hst-5", "setting": "Sap9 [5]", "result": "inhibition of degradation; also recorded: inhibited"},
      {"measurement": "inhibition of C. albicans degradation of Hst-5", "setting": "C. albicans cells", "result": "inhibition of C. albicans degradation; also recorded: resulted in inhibition of degradation; also recorded: salvaged Hst-5 from degradation"},
      {"measurement": "inhibition of Sap10 degradation of Hst-5", "setting": "Sap10", "result": "inhibition of degradation; also recorded: inhibited"}
    ]},
    {"molecule": "DSHAKRHHGYKRKFHEKHHSHRGY", "values": [
      {"measurement": "not cleaved", "setting": "Sap5 [6]", "result": "did not degrade Hst-5"},
      {"measurement": "cleaved bond", "setting": "[7]", "result": "K17-H18"},
      {"measurement": "cleaved bond", "setting": "[8]", "result": "R12-Lys13; also recorded: K17-H18"},
      {"measurement": "not cleaved", "setting": "[9]", "result": "salvaged Hst-5 from degradation"},
      {"measurement": "cleaved bond", "setting": "Sap9 [10]", "result": "R12-Lys13"}
    ]}
  ]
}
